Experimental data reported in the NIST ThermoML archive (doi:10.1021/je700152c).

Test: molar heat capacity at saturation pressure

CCCCn1cc[n+](C)c1.Cc1ccc(S(=O)(=O)[O-])cc1 [1-butyl-3-methylimidazolium tosylate]
Conditions	molar heat capacity [J/K/mol]
283.38 K, Crystal 1	400.74
283.57 K, Crystal 1	401.36
284.36 K, Metastable crystal	414.71
285.22 K, Crystal 1	405.4
285.23 K, Crystal 1	405.09
285.41 K, Crystal 1	405.71
286.18 K, Metastable crystal	418.44
287.05 K, Crystal 1	409.74
287.07 K, Crystal 1	409.12
287.24 K, Crystal 1	410.37
288 K, Metastable crystal	422.47
288.87 K, Crystal 1	414.71
288.9 K, Crystal 1	414.09
289.06 K, Crystal 1	415.64
289.81 K, Metastable crystal	426.82
290.68 K, Crystal 1	419.06
290.72 K, Crystal 1	418.75
290.87 K, Crystal 1	419.99
291.62 K, Metastable crystal	431.16
292.49 K, Crystal 1	423.71
292.53 K, Crystal 1	423.4
292.67 K, Crystal 1	424.02
293.42 K, Metastable crystal	435.51
294.29 K, Crystal 1	427.13
294.33 K, Crystal 1	428.06
294.47 K, Crystal 1	427.44
295.21 K, Metastable crystal	439.86
296.09 K, Crystal 1	431.47
296.13 K, Crystal 1	432.72
296.27 K, Crystal 1	432.09
296.99 K, Metastable crystal	445.13
297.87 K, Crystal 1	436.13
297.92 K, Crystal 1	437.06
298.05 K, Crystal 1	436.75
298.77 K, Metastable crystal	450.1
299.66 K, Crystal 1	440.79
299.71 K, Crystal 1	442.65
299.83 K, Crystal 1	442.03
300.21 K, Crystal 1	440.48
300.54 K, Metastable crystal	455.38
301.54 K, Crystal 1	446.68
301.6 K, Crystal 1	447.93
301.72 K, Crystal 1	447.62
302.1 K, Crystal 1	445.44
302.41 K, Metastable crystal	461.89
303.54 K, Crystal 1	452.58
303.6 K, Crystal 1	453.2
303.71 K, Crystal 1	453.82
304.1 K, Crystal 1	451.03
304.39 K, Metastable crystal	469.03
305.52 K, Crystal 1	458.79
305.59 K, Crystal 1	460.34
305.69 K, Crystal 1	460.03
306.09 K, Crystal 1	457.24
306.36 K, Metastable crystal	476.79
307.5 K, Crystal 1	465.93
307.57 K, Crystal 1	467.79
307.67 K, Crystal 1	467.17
308.07 K, Crystal 1	463.76
308.32 K, Metastable crystal	485.8
309.47 K, Crystal 1	473.69
309.54 K, Crystal 1	474.93
309.64 K, Crystal 1	475.24
310.04 K, Crystal 1	471.52
310.26 K, Metastable crystal	496.04
311.42 K, Crystal 1	482.69
311.49 K, Crystal 1	484.55
311.59 K, Crystal 1	484.24
311.76 K, Metastable crystal	501.63
311.99 K, Crystal 1	479.59
313.37 K, Crystal 1	492.63
313.44 K, Crystal 1	494.8
313.53 K, Crystal 1	493.56
313.67 K, Metastable crystal	515.91
313.94 K, Crystal 1	489.21
315.3 K, Crystal 1	503.49
315.37 K, Crystal 1	505.97
315.46 K, Crystal 1	503.18
315.56 K, Metastable crystal	532.05
315.87 K, Crystal 1	499.45
317.22 K, Crystal 1	514.97
317.29 K, Crystal 1	518.39
317.39 K, Crystal 1	512.18
317.42 K, Metastable crystal	550.67
317.78 K, Crystal 1	512.49
319.11 K, Crystal 1	529.25
319.18 K, Crystal 1	534.53
319.26 K, Metastable crystal	573.33
319.29 K, Crystal 1	524.29
319.67 K, Crystal 1	527.08
320.98 K, Crystal 1	545.71
321.05 K, Crystal 1	553.47
321.06 K, Metastable crystal	600.03
321.17 K, Crystal 1	538.26
321.53 K, Crystal 1	544.77
322.82 K, Crystal 1	565.88
322.82 K, Metastable crystal	633.24
322.89 K, Crystal 1	575.51
323.03 K, Crystal 1	555.95
323.37 K, Crystal 1	566.5
324.53 K, Metastable crystal	675.15
324.63 K, Crystal 1	590.72
324.69 K, Crystal 1	602.51
324.85 K, Crystal 1	578.61
325.17 K, Crystal 1	593.51
326.19 K, Metastable crystal	727.92
326.41 K, Crystal 1	621.45
326.45 K, Crystal 1	635.42
326.64 K, Crystal 1	607.48
326.92 K, Crystal 1	628.28
328.13 K, Crystal 1	660.56
328.17 K, Crystal 1	676.7
328.38 K, Crystal 1	644.42
328.62 K, Crystal 1	675.15
329.79 K, Crystal 1	710.85
329.82 K, Crystal 1	728.23
330.07 K, Crystal 1	691.29
330.24 K, Crystal 1	740.02
340.93 K, Metastable crystal	542.91
342.74 K, Crystal 1	648.45
342.82 K, Liquid	542.91
343.34 K, Crystal 1	571.47
343.81 K, Crystal 1	550.05
343.97 K, Liquid	543.84
344.54 K, Liquid	545.4
344.72 K, Liquid	544.77
345.34 K, Liquid	544.46
346.06 K, Liquid	544.77
346.43 K, Liquid	546.33
346.46 K, Liquid	546.64
346.61 K, Liquid	546.02
347.35 K, Liquid	545.71
348.14 K, Liquid	546.02
348.31 K, Liquid	547.57
348.49 K, Liquid	547.26
348.72 K, Liquid	547.57
348.77 K, Liquid	547.57
350.2 K, Liquid	549.43
350.6 K, Liquid	549.12
350.64 K, Liquid	549.12
352.08 K, Liquid	550.98
352.48 K, Liquid	550.36
352.5 K, Liquid	550.36
353.97 K, Liquid	552.22
354.36 K, Liquid	551.6
354.37 K, Liquid	551.91
355.86 K, Liquid	553.47
356.24 K, Liquid	553.16
356.25 K, Liquid	553.16
357.74 K, Liquid	555.02
358.11 K, Liquid	554.71
358.12 K, Liquid	554.71
359.64 K, Liquid	556.26
359.97 K, Liquid	555.95
360 K, Liquid	555.95
361.53 K, Liquid	557.81
361.84 K, Liquid	557.5
361.88 K, Liquid	557.5
363.42 K, Liquid	559.05
363.75 K, Liquid	558.74
365.3 K, Liquid	560.3
365.62 K, Liquid	559.98
367.19 K, Liquid	561.85
367.5 K, Liquid	561.54
